Data as given in PubChem BioAssay AID192 (DTP/NCI, 2004).
Toxic doses and inconclusive results are not listed.

Tested on: BDF1 mice, B16 melanoma ip, median survival T/C
Assay: NCI In Vivo Anticancer Drug Screen. Data for tumor model B16 Melanoma (intraperitoneal) in B6D2F1 (BDF1) mice
Settings: endpoint: median survival time, higher = longer survival
In short: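 Tumor-bearing mice received test compound or vehicle. Survival or tumor size was then measured in both groups. The treated-group figure was divided by the control-group figure.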

[1] = dose: 25.0 mg/kg/injection, schedule: Q01DX009 (ip), vehicle: saline with Tween-80
[2] = dose: 50.0 mg/kg/injection, schedule: Q01DX009 (ip), vehicle: saline with Tween-80
[3] = dose: 100.0 mg/kg/injection, schedule: Q01DX009 (ip), vehicle: saline with Tween-80
[4] = dose: 200.0 mg/kg/injection, schedule: Q01DX009 (ip), vehicle: saline with Tween-80
[5] = dose: 100.0 mg/kg/injection, schedule: Q01DX009 (ip), vehicle: Klucel (hydroxypropylcellulose) (HPC)
[6] = dose: 400.0 mg/kg/injection, schedule: Q01DX009 (ip), vehicle: Klucel (hydroxypropylcellulose) (HPC)
[7] = dose: 200.0 mg/kg/injection, schedule: Q01DX009 (ip), vehicle: Klucel (hydroxypropylcellulose) (HPC)
[8] = dose: 50.0 mg/kg/injection, schedule: Q01DX009 (ip), vehicle: Klucel (hydroxypropylcellulose) (HPC)

For `COC1CC(C)C(OC)C2=CC(=O)C=C(NC(=O)/C(C)=C/C=C\C(C)C(OC(N)=O)/C(C)=C\C(C)C1OC)C2=O` (stereo not drawn), the T/C (dose: 5.0 mg/kg/injection, schedule: Q01DX009 (ip), vehicle: saline + alcohol) was 152 % of control and the T/C (dose: 10.0 mg/kg/injection, schedule: Q01DX009 (ip), vehicle: saline + alcohol) was 172 % of control.
`CCC(C)C(C(=O)OCCN(C)C)c1ccccc1` (stereo not drawn) was tested, and the T/C [1] was 100 % of control, the T/C [2] was 112 % of control and the T/C [3] was 99 % of control.
For `CCCCCCCCSSCCCCCCCC`, the T/C [3] was 108 % of control, the T/C [4] was 101 % of control and the T/C (dose: 400.0 mg/kg/injection, schedule: Q01DX009 (ip), vehicle: saline with Tween-80) was 98 % of control.
In the case of `CC1CCCN(c2ccc([N+](=O)[O-])cc2[N+](=O)[O-])C1` (stereo not drawn), the T/C [5] is reported as 93 % of control and the T/C [6] is reported as 100 % of control.
For `Cc1ccc2cc3c(ccc4ccccc43)c3c2c1CC3`, the T/C (dose: 50.0 mg/kg/injection, schedule: Q01DX009 (ip), vehicle: saline) was 124 % of control, the T/C [3] was 120 % of control and the T/C (dose: 100.0 mg/kg/injection, schedule: Q04DX003 (ip), vehicle: saline with Tween-80) was 110 % of control. The T/C [4] was 114 % of control, the T/C (dose: 200.0 mg/kg/injection, schedule: Q04DX003 (ip), vehicle: saline with Tween-80) was 110 % of control and the T/C (dose: 400.0 mg/kg/injection, schedule: Q04DX003 (ip), vehicle: saline with Tween-80) was 115 % of control.
For `C=C(C)C(=O)O[C@H]1CC2=C[C@@H](C[C@@]3(C)O[C@@H]3[C@H]3OC(=O)C(=C)[C@@H]31)OC2=O`, the T/C (dose: 3.75 mg/kg/injection, schedule: Q01DX009 (ip), vehicle: Klucel (hydroxypropylcellulose) (HPC)) was 89 % of control, the T/C (dose: 7.5 mg/kg/injection, schedule: Q01DX009 (ip), vehicle: Klucel (hydroxypropylcellulose) (HPC)) was 97 % of control and the T/C (dose: 15.0 mg/kg/injection, schedule: Q01DX009 (ip), vehicle: Klucel (hydroxypropylcellulose) (HPC)) was 92 % of control.
With `CCCCNC(=O)Oc1ccc(C(=O)OCC)cc1` the T/C [1] was 96 % of control, the T/C [2] was 98 % of control and the T/C [3] was 95 % of control.
`CC/C=C/c1cccc(OC)c1` was tested, and the T/C [5] was 96 % of control, the T/C [7] was 96 % of control and the T/C [6] was 92 % of control.
In the case of `CCSCCNC(=O)[C@@]1(O)[C@H](O)[C@]2(CC)C=CCN3CC[C@@]4(c5cc([C@@]6(OC(C)=O)C[C@H]7C=C(CC)CN(CCc8c6[nH]c6ccccc86)C7)c(OC)cc5N(C)[C@@H]14)[C@@H]32`, the T/C (dose: 0.13 mg/kg/injection, schedule: Q01DX009 (ip), vehicle: water) is reported as 100 % of control, the T/C (dose: 0.25 mg/kg/injection, schedule: Q01DX009 (ip), vehicle: water) is reported as 115 % of control and the T/C (dose: 0.5 mg/kg/injection, schedule: Q01DX009 (ip), vehicle: water) is reported as 120 % of control. The T/C (dose: 1.0 mg/kg/injection, schedule: Q01DX009 (ip), vehicle: water) was 155 % of control and the T/C (dose: 2.0 mg/kg/injection, schedule: Q01DX009 (ip), vehicle: water) was 162 % of control.
With `Cc1c(NC=O)c(=O)n(-c2ccccc2)n1C` the T/C [5] was 100 % of control, the T/C [7] was 100 % of control and the T/C [6] was 96 % of control.
With `Cc1cc(OC(=O)c2ccc(N(C)C)cc2)ccc1[N+](=O)[O-]` the T/C (dose: 25.0 mg/kg/injection, schedule: Q01DX009 (ip), vehicle: Klucel (hydroxypropylcellulose) (HPC)) was 92 % of control, the T/C [8] was 92 % of control and the T/C [5] was 88 % of control.
`O=[N+]([O-])c1ccc(C2OC2c2ccccc2)cc1` (stereo not drawn) was tested, and the T/C (dose: 9.38 mg/kg/injection, schedule: Q01DX009 (ip), vehicle: saline with Tween-80) was 100 % of control, the T/C (dose: 12.5 mg/kg/injection, schedule: Q01DX009 (ip), vehicle: Klucel (hydroxypropylcellulose) (HPC)) was 103 % of control and the T/C (dose: 18.7 mg/kg/injection, schedule: Q01DX009 (ip), vehicle: saline with Tween-80) was 105 % of control. For the same compound, the T/C (dose: 37.5 mg/kg/injection, schedule: Q01DX009 (ip), vehicle: saline with Tween-80) was 97 % of control, the T/C [8] was 100 % of control and the T/C (dose: 75.0 mg/kg/injection, schedule: Q01DX009 (ip), vehicle: saline with Tween-80) was 102 % of control. For the same compound, the T/C (dose: 150.0 mg/kg/injection, schedule: Q01DX009 (ip), vehicle: saline with Tween-80) was 97 % of control.
